# Data reported in patent publication US20230263808A1 (UNIVERSITY OF FLORIDA RESEARCH FOUNDATION, INCORPORATED, priority 2020, published 2023).
# “Also recorded” adds a separate entry of the source.
# Legend:
# C2C12 myotubes [1] = assay: Insulin-induced protein synthesis (SUnSET, In-Cell Western) in C2C12 myotubes; format: cell-based, mouse; conditions: fasting conditions
# Description: (§1) A) C2C12 myotubes were assayed for chymotrypsin-like proteasomal activity. […] C) Quantitation of the ICW in panel B. D) ICW for surface expression of Glut4 on L6 myotubes. E) ICW for insulin-induced incorporation of puromycin into C2C12 myotube surface proteins. F-G) High-content imaging and analysis of C2C12 myoblasts stained with a Mitotracker dye. H) Assay reproducibility from screening 22 compounds on two separate occasions. The Pearson correlation coefficient, r, and its associated p-value is indicated.
# (§2) C2C12 myocytes were used in all assays, except in the Glut4 translocation assay where L6 rat myocytes were used. ICW, In-Cell Western. Also see Methods.
# (§3) To avoid such effects on myogenesis, we switched myoblasts to differentiation media, and then on day 4, added 10 μM cytarabine, a chemotherapy agent that kills dividing cells, and then adding GCs on day 6 or 7 and completing assays in day 8 (FIG. 8).
# (§4) Physiologically, the effects of GCs on protein balance and Glut4 translocation vary in vivo depending upon the stressor. For example, GCs mediate atrophy in response to fasting but not exercise. […] To assess protein degradation, we measured chymotrypsin-like proteasomal activity (FIG. 2, A). The activating phosphorylation of AKT at Thr308 (pAKT) was measured using a LI-COR In-Cell Western assay (FIG. 2, B and C). The rate-limiting step in insulin-mediated glucose uptake is the translocation of the glucose transporter, Glut4, to the surface membrane, which we also measured by In-Cell Western without permeabilizing the myotubes (FIG. 2, D). Surface Sensing of Translation (SUnSET) (Schmidt et al., Nat Methods 6, 275-277, 2009) assay was used to measure protein synthesis by In-Cell Western, following treatment of myotubes with a low dose of puromycin, which incorporates into translating proteins, but at a low enough level to provide a readout for global protein synthesis (FIG. 2, E). Lastly, we developed a high-content imaging assay in myoblasts stained with a MitoTracker dye, so that individual mitochondrial networks could be visualized with adequate resolution to quantitate area, segmentation, branching, and fluorescence intensity which is a measure of mitochondrial membrane potential (ψm).
# C2C12 myotubes [2] = assay: Protein degradation: chymotrypsin-like proteasomal activity in C2C12 myotubes; format: cell-based, mouse
# Description: as §1, §2, §3
# as §4, with “Lastly, we developed a high-content imaging assay in myoblasts stained with a MitoTracker dye, so that individual mitochondrial networks could be visualized with adequate resolution to quantitate area, segmentation, branching, and fluorescence intensity which is a measure of mitochondrial membrane potential (ψm).” left out
# L6 myotubes = assay: Glut4 translocation to the myotube surface (In-Cell Western); format: cell-based, rat
# Description: as §1, §2, §4
# C2C12 myoblasts = assay: Mitochondrial potential, high-content imaging with MitoTracker dye; format: cell-based, mouse
# Description: as §1
# (§5) A) Each dot represents the effects of a compound in the indicated assays at 10 uM. N=4-6 from two different experiments. […] C) SR11466 is efficacious at inhibiting IL-6 secretion from A549 cells. C-E). […] D) Mitochondrial activity was measured in myoblasts using high content imaging with mitotracker dye after 24 treatment. New amino acid incorporation was measured with LICOR in cell western for puromycin (SunSet assay). E) top, MMTV-luciferase reporter data. N=3, mean+SEM. Bottom, Mineralization of primary human OBs was assayed after two weeks of differentiation from MSC and two weeks of mineralization. N=4, mean+SEM, 2-way ANOVA.
# as §4
# pAKT in C2C12 myotubes = assay: Insulin-induced pAKT (Thr308) In-Cell Western; format: cell-based, mouse
# Description: as §1
# A) Pearson correlations were calculated between the indicated variables. The different lines indicate statistically significant correlations at the corresponding p-value thresholds. Solid lines indicate positive correlations, dashed lines indicate negative correlations. […]
# Physiologically, the effects of GCs on protein balance and Glut4 translocation vary in vivo depending upon the stressor. […] To assess protein degradation, we measured chymotrypsin-like proteasomal activity (FIG. 2, A). The activating phosphorylation of AKT at Thr308 (pAKT) was measured using a LI-COR In-Cell Western assay (FIG. 2, B and C). The rate-limiting step in insulin-mediated glucose uptake is the translocation of the glucose transporter, Glut4, to the surface membrane, which we also measured by In-Cell Western without permeabilizing the myotubes (FIG. 2, D). […]
# LPS-induced TNFα = assay: LPS-induced plasma TNFα levels in mice; format: in vivo, C57BL/6 male mice; conditions: mice pretreated with ligand
# From the text: (§6) A) Correlation of correlation (COC) plots where each point represents the Pearson correlation coefficient, r, between a distinct gene expression or GR-peptide interaction assay with assays indicated on the x and y axes. B) The effects of all tested compounds on IL-1β-induced secretion of IL-6 (y axes) and GC-regulated phenotypes indicated on the x axes. C) The effects of all tested compounds on IL-1β-induced secretion of IL-6 (y axis) and bone mineralization (x axis). D) IL-1β-induced IL-6 production by A549 cells treated with 10 μM of the indicated compounds was compared by AlphaLISA. E-H) Myoblasts were assayed as described in FIG. 8. I) Representative myoblasts imaged during the mitochondrial potential assay. J) Plasma TNFα levels of C57BL/6 male mice treated pretreated with the indicated ligands. K) Changes in lean mass of mice in panel J were determined by whole-body NMR after an additional 18 h LPS treatment. Data shown are mean+SEM.
# [3] = Loss of lean mass after a larger dose of LPS (whole-body NMR); format: in vivo, C57BL/6 male mice; conditions: additional 18 h LPS treatment
# From the text: as §6
# [4] = Lactate-tolerance test (rate of glucose production); format: in vivo, C57BL/6 male mice; conditions: after overnight fast; 10 mg/kg Dex or SR16024, 50 mg/kg SR11466
# From the text: A) The effects of all tested compounds on IL-1β-induced IL-6 production (x-axes) versus GR interaction with the indicated peptides. B-C) The effects of all tested compounds on the indicated GC-regulated phenotypes (x-axes) versus GR interaction with the CHD9_1023 and CENPR_1 peptides (y-axes). D-F) COC plots. Each point represents the Pearson correlation coefficient, r, between a distinct gene expression or GR-peptide interaction assay with assays indicated on the x and y axes. G) The effects of all tested compounds on IL-1β-induced IL-6 production (y-axes) versus insulin-induced protein synthesis. […] IL-β-induced IL-6 production by A549 cells treated with the indicated compounds was compared by AlphaLISA. […] Mice in panel K were subjected to a lactate-tolerance test (LTT).
# We were also interested in whether the compounds would show dissociation between Glut4 translocation in skeletal muscle and gluconeogenesis in the liver, but enhanced glucose production is typically studied after weeks or months of GC treatment. However, we reasoned that an overnight fast should enable detection of effects after a single dose. […] Thus, profiling effects of GCs in the physiological context of nutrient deprivation allowed the discovery of two new types of glucocorticoids with improved profiles in skeletal muscle.
# [5] = test system: mitochondrial activity, pAKT, protein synthesis, and bone; assay: Compound profiling platform, overall profile (FIG. 15); format: cell-based; conditions: for overall profile in compound profiling (anabolic effects, agonism): 10 uM
# Description: N=4-6 from two different experiments. […] D) Mitochondrial activity was measured in myoblasts using high content imaging with mitotracker dye after 24 treatment. New amino acid incorporation was measured with LICOR in cell western for puromycin (SunSet assay). […] N=3, mean+SEM. […] N=4, mean+SEM, 2-way ANOVA.
# as §3, §4
# Additional studies were performed to assess activities of the various compounds identified from the previous profiling.
# myoblasts = assay: Myoblast proliferation and fusion into myotubes; format: cell-based
# [6] = background statement; cited from earlier work
# [7] = test system: IL-1β-induced IL-6 secretion by A549 lung cells; assay: IL-1β-induced IL-6 secretion by A549 lung cells (AlphaLISA); format: cell-based; conditions: 10 μM
# From the text: as §6
# In order to understand whether effects on skeletal muscle could be dissociated from anti-inflammatory effects of the ligands, we profiled the compounds for suppression of IL1β-induced IL-6 secretion by A549 lung cells. Examining the correlations between assays can be used to identify dissociated assays that selectively correlate with a given phenotype, predicting discovery of dissociated ligands. […] We call this a correlation of correlations (COC) plot. […] These include recruitment of NCOA2 and NCOA3 peptides, coactivators that we and others have shown to be required for GC-dependent suppression of inflammation in different cell types (FIG. 11, A). However, for the mitochondrial assay and IL-6, there are dissociated assays shown by points that are far out from the regression line in the COC plot (FIG. 7, A). For example, interaction of CHD9 with GR predicted mitochondrial activity but not Glut4 translocation (FIG. 11, B), while interaction with the CENPR peptide selectively predicted effects on Glut4 translocation (FIG. 11, C). […] Assays that correlated with effects of the ligands on GR nuclear translocation were also highly correlated with Glut4 translocation and suppression of IL-6 secretion (FIG. 11, F). Therefore, the COC curves provide a way to identify common signaling mechanisms between different GR target tissues and signaling pathways.
# GILZ mRNA = assay: GILZ gene expression; format: cell-based
# [8] = test system: primary human osteoblasts; assay: Osteoblast mineralization (Alizarin Red S) from mesenchymal stem cells; format: cell-based
# Description: as §5
# As a further test for dissociation, the compounds were profiled in primary human osteoblasts for effects on osteogenesis during 4 weeks of differentiation from mesenchymal stem cells. Specifically, osteoblast mineralization was examined as follows. Human mesenchymal stem cells (MSCs) at passage 2 were maintained in growth media consisted of alpha-MEM (Life Technologies, 32561-037) supplemented with 17% FBS (Sigma-Aldrich, 12303C), 2 mM L-glutarnine (Life Technologies, 25030-081), and 100 units/mL penicillin/streptomycin (Life Technologies, 15140-122). Effect of glucocorticoid receptor modulators on osteogenic differentiation of MSCs was quantified using Alizarin Red S (Sigma-Aldrich, A5533) staining. Briefly, human MSCs were seeded in the middle 8 wells of 48-well plates at plating density of 10,000 cells per well. PBS (Life Technologies, 10010-031) was added to surrounding wells to reduce evaporation of media in the middle wells during prolonged incubation. 24 h later, growth media was replaced by osteogenic induction media (OIM) consisted of low-glucose DMEM (Life Technologies, 10567-014) supplemented with 10% FBS (Sigma-Aldrich. 12303C), 50 μg/ml L-ascorbic-2-phosphate (Sigma-Aldrich, A8960), 10 mM β-glyceroiphosphate (Sigma-Aldrich, G9891), and glucocorticoid modulators. OIM containing test compounds was replaced every week. At the end of 2 weeks, monolayers were washed with PBS (Life Technologies, 10010-031), incubated in Richard-Allan Scientific™ Neutral Buffered Formalin (10%) (Thermo Scientific, 5725) for 2 h at room temperature, washed with deionized water and stained with Alizarin Red S for 30 min at room temperature. Monolayers were then rinsed 3×with deionized water until clear, stain was then extracted with 10% (w/v) cetylpyridinium chloride (Sigma-Aldrich, C0732) in 10 mM sodium phosphate (Sigma, S5011 and S5136), pH 7.0 for 15 min at room temperature and the amount of extracted dye quantified spectroscopically at 562 nm. Spectroscopic analysis performed using a synergy™ NEO HTS Multi-Mode Microplate Reader (BioTek Instruments, Inc.).
smiles,measurement,setting,value
"C[C@@H]1C[C@H]2[C@@H]3CCC4=CC(=O)C=C[C@]4(C)[C@@]3(F)[C@@H](O)C[C@]2(C)[C@@]1(O)C(=O)CO [Dex, dexamethasone, reference compound]",potency for modulating protein synthesis,C2C12 myotubes [1],low nM
same,effect on protein degradation (proteasomal),C2C12 myotubes [2],stimulated protein degradation
same,potency for modulating Glut4 translocation,L6 myotubes; fasting conditions,low nM
same,Dex concentration sufficient to produce the maximal loss of mitochondrial oxidative capacity,C2C12 myoblasts,1 nM
same,effect on mitochondrial activity / potential,C2C12 myoblasts,strongly inhibited; also recorded: reduced
same,insulin-mediated pAKT after 1 hr of treatment,pAKT in C2C12 myotubes; 1 hr treatment,not inhibited
same,potency for modulating pAKT,pAKT in C2C12 myotubes; fasting conditions,low nM
same,LPS-induced TNFα levels in the blood,LPS-induced TNFα,strongly suppressed
same,loss of lean mass following a larger dose of LPS,[3],significantly worsened
same,rate of glucose production in lactate tolerance test,[4],increased the rate of glucose production
same,dosing at which effects on the insulin signaling pathway are shown,"[5]; myotubes, serum starvation, insulin challenge, cytarabine treatment",1 to 10 nM
same,fusion into myotubes,myoblasts,promotes fusion
same,myoblast proliferation,myoblasts,strongly inhibits
same,concentration required for effects on protein balance in vitro,[6],50 to 100 µM
"Cc1ncccc1NC(=O)c1ccc2c(c1)CC[C@@H]1C[C@@](O)(C(F)(F)F)CC[C@@]21Cc1ccccc1 [PF802, reference compound]",effect on protein degradation (proteasomal),C2C12 myotubes [2],stimulated protein degradation as strongly as Dex
same,effect on Glut4 translocation,L6 myotubes,slightly improved compared to Dex
same,effect on mitochondrial activity / potential,C2C12 myoblasts,strongly inhibited
same,"overall profile in compound profiling (anabolic effects, agonism)",[5],partial agonist
CC#CC1(O)CCC2C3CCc4cc(C(=O)Nc5cccnc5C)ccc4C3C(OCc3ccccc3)CC21C (stereo not drawn) [SR11469],inhibition of IL-1β-induced IL-6 secretion (anti-inflammatory),[7],weakly anti-inflammatory
same,GILZ gene expression,GILZ mRNA,not activating GILZ
same,"overall profile in compound profiling (anabolic effects, agonism)",[5],more antagonistic SGRMs; also recorded: anabolic effects
CC#CC1(O)CCC2C3CCc4cc(C(=O)Nc5ccc(C)nc5)ccc4C3C(O)CC21C (stereo not drawn) [SR15419],"overall profile in compound profiling (anabolic effects, agonism)",[5],anabolic effects
CC#CC1(O)CCC2C3CCc4cc(C(=O)Nc5ncccc5C)ccc4C3C(O)CC21C (stereo not drawn) [SR15438],"overall profile in compound profiling (anabolic effects, agonism)",[5],anabolic effects
CC#CC1(O)CCC2C3CCc4cc(C(=O)Nc5cccnc5C)ccc4C3C(OC)CC21C (stereo not drawn) [SR15960],inhibition of IL-1β-induced IL-6 secretion (anti-inflammatory),[7],fully inhibiting IL-6 secretion
CC#CC1(O)CCC2C3CCc4cc(C(=O)Nc5cccnc5C)ccc4C3C(OCC)CC21C (stereo not drawn) [SR15961],inhibition of IL-1β-induced IL-6 secretion (anti-inflammatory),[7],fully inhibiting IL-6 secretion
CC#CC1(O)CCC2C3CCc4cc(C(=O)Nc5cccnc5C)ccc4C3C(OCc3cccc(Cl)c3)CC21C (stereo not drawn) [SR16023],"overall profile in compound profiling (anabolic effects, agonism)",[5],anabolic effects
"C[C@]12CC[C@H]3[C@@H](CCC4=CC(=O)CC[C@@]43C)[C@@H]1CC[C@@H]2O [testosterone, reference compound]",effect on mineralization (bone),[8],no effect
